Test results as given in paper PMC12118597 (Science Advances, 2025).
Several values for one entry are separate records, joined by “and”; a condition that tells them apart may be missing. Identical values can stand only once. Like-named read-outs stand apart in the source and are kept apart here.

Columns and labels:
[1] = target: T1, SARS-CoV-2 NSP3 macrodomain (Mac1) (Severe acute respiratory syndrome coronavirus 2, UniProt P0DTD1); assay: biochemical; assay type: binding; conditions: for Average % competition: Single dose, concentration 200 μM
[2] = target: T1, SARS-CoV-2 NSP3 macrodomain (Mac1); assay type: binding; conditions: for Number of isomers bound: ligand modeling, Mac1 crystal soak; for 1-BDC: PanDDA background density correction; for X-ray crystal structure: TRUE = crystal structure with ligand obtained; for Hit (PanDDA run, overall): crystal soak, 10 mM soak concentration; for Refined ligand occupancy (%): crystallographic refinement; for 2*(1-BDC) (%): occupancy estimate from PanDDA; for Binding site: site of ligand in X-ray crystal structure
[3] = SARS CoV-2 macrodomain HTRF assay, single dose concentration 200 μM, read-out: Average % competition
[4] = compound at 200 μM, mean of three to four technical replicates, read-out: % competition at 200 μM (preliminary HTRF screen)
[5] = crystal soak 10 mM, P43 crystal form
[6] = crystal soak 10 mM, DMSO background map
[7] = stereoisomer(s) modeled as bound, residues 201/202/203
[8] = crystal soak 10 mM, TFA/DMSO background map
[9] = SARS CoV-2 macrodomain HTRF assay
[10] = read-out: IC50 (confirmatory HTRF dose-response screen)
[11] = HTRF binding curve, SARS-CoV-2 Mac1
[12] = SARS CoV-2 macrodomain HTRF assay, dose-response
[13] = crystal soak 10 mM, DMSO background map, event 1
[14] = SARS CoV-2 macrodomain HTRF assay, dose-response, read-out: IC50
[15] = stereoisomer(s)/conformations of the soaked ligand modeled in the Mac1 crystal structure

SMILES: OC[C@H]1CN2CCC[C@H]2CN1c1ncnc2[nH]ccc12 [AVI-3724]
- inhibition at 200 µM [1, 3]: < 10%
- inhibition at 200 µM [1, 4]: < 10%
- PanDDA run, overall: Hit [2, 5]: TRUE
- PanDDA run, overall: Modeling comment [2, 5]: Weak density, not modeled
- PanDDA run, DMSO background map: 1-BDC [2, 6]: 0.05
- PanDDA run, DMSO background map: Hit [2, 6]: TRUE

SMILES: CC1(C)CCC(CO)N(c2ncnc3[nH]ccc23)C1 (stereo not drawn) [AVI-3726]
- inhibition at 200 µM [1, 3]: 76%
- inhibition at 200 µM [1, 4]: 76%
- Number of isomers bound [2]: 2
- Isomers modeled [2, 7]: R,R,S

SMILES: OCC1CC2(CCCCC2)CN1c1ncnc2[nH]ccc12 (stereo not drawn) [AVI-3727]
- inhibition at 200 µM [1, 3]: 67%
- inhibition at 200 µM [1, 4]: 67%
- PanDDA run, TFA/DMSO background map: 1-BDC [2, 8]: 0.25
- PanDDA run, TFA/DMSO background map: Hit [2, 8]: TRUE
- Number of isomers bound [2]: 1

SMILES: OCC1CC2(CCC2)CN1c1ncnc2[nH]ccc12 (stereo not drawn) [AVI-3728]
- inhibition at 200 µM [1, 3]: 79%
- inhibition at 200 µM [1, 4]: 79%
- PanDDA run, TFA/DMSO background map: 1-BDC [2, 8]: 0.26
- PanDDA run, TFA/DMSO background map: Hit [2, 8]: TRUE
- Number of isomers bound [2]: 1
- Isomers modeled [2, 7]: S,S

SMILES: C[C@@H](O)[C@H](CO)Nc1ncnc2[nH]ccc12.O=C(O)C(F)(F)F [AVI-3730]
- Average % competition [1]: 63%
- inhibition at 200 µM [1, 4]: 63%
- PanDDA run, TFA/DMSO background map: 1-BDC [2, 8]: 0.12
- PanDDA run, TFA/DMSO background map: Hit [2, 8]: TRUE
- Number of isomers bound [2]: 1

SMILES: O=C(O)C(F)(F)F.OC1([C@H]2CCCN2c2ncnc3[nH]ccc23)Cc2ccccc2C1 [AVI-3731]
- Ki [1, 9]: 3.4 µM
- Ligand efficiency (binding enery per heavy atom) [1, 9]: 0.31
- IC50 [1, 10]: 3.7 µM
- PanDDA run, TFA/DMSO background map: 1-BDC [2, 8]: 0.14
- PanDDA run, TFA/DMSO background map: Hit [2, 8]: TRUE
- Number of isomers bound [2]: 1

SMILES: Cc1nn(C)cc1C1CC[C@H](CO)N1c1ncnc2[nH]ccc12 (stereo partly drawn) [AVI-3733]
- inhibition at 200 µM [1, 3]: 44%
- inhibition at 200 µM [1, 4]: 44%
- Number of isomers bound [2]: 1

SMILES: OCCC(CO)Nc1ncnc2[nH]ccc12 (stereo not drawn) [AVI-3734]
- Ki [1, 9]: 48 µM
- Ligand efficiency (binding enery per heavy atom) [1, 9]: 0.37
- IC50 [1, 10]: 52 µM
- Number of isomers bound [2]: 1

SMILES: Cc1c[nH]c2ncnc(NCC(C)(C)O)c12 [AVI-3758, 2-methyl-1-((5-methyl-7H-pyrrolo[2,3-d]pyrimidin-4-yl)amino)propan-2-ol]
- Hill slope [1, 11]: 1.0
- Ki [1, 9]: 26 µM
- Ligand efficiency (binding enery per heavy atom) [1, 9]: 0.40
- Hill slope [1, 12]: 1.0
- IC50 [1, 10]: 28 µM
- 1-BDC [2]: 0.14
- X-ray crystal structure [2]: TRUE
- Hit (PanDDA run, DMSO background map) [2, 6]: TRUE
- 1-BDC (PanDDA run, DMSO background map) [2, 13]: 0.19 and 0.14
- Hit (PanDDA run, overall) ([2]; P43 crystal form): TRUE
- Refined ligand occupancy (%) [2]: 50%
- 2*(1-BDC) (%) [2]: 28%
- Binding site [2]: Adenosine

SMILES: Cc1c[nH]c2ncnc(NCC3(O)CCCC3)c12 [AVI-3760, 1-(((5-methyl-7H-pyrrolo[2,3-d]pyrimidin-4-yl)amino)methyl)cyclopentan-1-ol]
- Hill slope [1, 11]: 1.1
- Ki [1, 9]: 18 µM
- Ligand efficiency (binding enery per heavy atom) [1, 9]: 0.36
- Hill slope [1, 12]: 1.1
- IC50 [1, 14]: 19 µM
- 1-BDC [2]: 0.16
- X-ray crystal structure [2]: TRUE
- Hit (PanDDA run, DMSO background map) [2, 6]: TRUE
- 1-BDC (PanDDA run, DMSO background map) [2, 13]: 0.19 and 0.16
- Hit (PanDDA run, overall) ([2]; P43 crystal form): TRUE
- Refined ligand occupancy (%) [2]: 50%
- 2*(1-BDC) (%) [2]: 32%
- Binding site [2]: Adenosine

SMILES: C[C@@H]1CCN(c2ncnc3[nH]ccc23)[C@H](CO)C1 [AVI-4064]
- Ki [1, 9]: 93 µM
- Ligand efficiency (binding enery per heavy atom) [1, 9]: 0.31
- IC50 [1, 14]: 100 µM
- Isomers modeled [2, 15]: RS,SR

SMILES: O=C(O)C(F)(F)F.OC[C@H](Cc1ccc(O)cc1)Nc1ncnc2[nH]ccc12 [AVI-4066]
- Ki [1, 9]: 670 µM
- Ligand efficiency (binding enery per heavy atom) [1, 9]: 0.21
- IC50 [1, 14]: 720 µM
- Hit (PanDDA run, TFA/DMSO background map) [2, 8]: TRUE
- 1-BDC (PanDDA run, TFA/DMSO background map) ([2]; crystal soak 10 mM, TFA/DMSO background map, event 1): 0.19 and 0.29 and 0.3

SMILES: CC(C)(O)C1N(c2ncnc3[nH]ccc23)CCC1(C)C (stereo not drawn) [AVI-4126]
- Ki [1, 9]: 93 µM
- Ligand efficiency (binding enery per heavy atom) [1, 9]: 0.28
- IC50 [1, 14]: 100 µM
- Isomers modeled [2, 15]: R,S

SMILES: CC(C)(O)C1C2CCCCC2CN1c1ncnc2[nH]ccc12 (stereo not drawn) [AVI-4127]
- Ki [1, 9]: 120 µM
- Ligand efficiency (binding enery per heavy atom) [1, 9]: 0.25
- IC50 [1, 14]: 130 µM
- Isomers modeled [2, 15]: SSR,SRS

SMILES: CC(C)(O)C1C2CCC2CN1c1ncnc2[nH]ccc12 (stereo not drawn) [AVI-4128]
- Ki [1, 9]: 22 µM
- Ligand efficiency (binding enery per heavy atom) [1, 9]: 0.32
- IC50 [1, 10]: 24 µM
- Isomers modeled [2, 15]: SRR

SMILES: CC1CCC(O)(CNc2ncnc3[nH]ccc23)CC1 (stereo not drawn) [AVI-4312]
- Ki [1, 9]: 20 µM
- Ligand efficiency (binding enery per heavy atom) [1, 9]: 0.34
- IC50 [1, 14]: 21 µM
- Isomers modeled [2, 15]: rr

SMILES: Cc1c[nH]c2ncnc(NCC3(O)CCC(C)CC3)c12 (stereo not drawn) [AVI-4331]
- Ligand efficiency (binding enery per heavy atom) [1, 9]: 0.26
- IC50 [1, 14]: 210 µM
- Isomers modeled [2, 15]: rr

SMILES: CC(O)C(C)Nc1ncnc2[nH]ccc12 (stereo not drawn) [AVI-5158]
- Average % competition [1]: 32%
- inhibition at 200 µM [1, 4]: 32%
- Isomers modeled [2, 15]: RS,RR

SMILES: CC1(C)CCN(c2ncnc3[nH]ccc23)C(CO)C1 (stereo not drawn) [AVI-5994]
- Ki [1, 9]: 63 µM
- Ligand efficiency (binding enery per heavy atom) [1, 9]: 0.31
- IC50 [1, 14]: 68 µM
- Isomers modeled [2, 15]: S,S

SMILES: O[C@H]1CC[C@H]2CCN(c3ncnc4[nH]ccc34)[C@H]21 [AVI-5997]
- Ki [1, 9]: 34 µM
- Ligand efficiency (binding enery per heavy atom) [1, 9]: 0.34
- IC50 [1, 14]: 37 µM
- Isomers modeled [2, 15]: SSR

SMILES: OC1CCC(O)(CNc2ncnc3[nH]ccc23)CC1 (stereo not drawn) [AVI-6220]
- Ki [1, 9]: 240 µM
- Ligand efficiency (binding enery per heavy atom) [1, 9]: 0.26
- IC50 [1, 14]: 260 µM
- Isomers modeled [2, 15]: rr,rr
